According to the NIST ThermoML archive (doi:10.1016/j.tca.2013.04.021):
Numbers after ± are expanded uncertainties.

Tests used:
[1] = Molar enthalpy of transition or fusion; conditions: Crystal; DSC
[2] = Crystal; DTA

Molar enthalpy of transition or fusion [1] [kcal/mol]	Normal melting temperature [2] [°C]	Structure (SMILES)
8.01 ± 0.215	71.87 ± 1.1	CCN(C(=O)N(CC)c1ccccc1)c1ccccc1 [1,3-diethyl-1,3-diphenylurea]
7.91 ± 0.215	120.00 ± 1.1	CN(C(=O)N(C)c1ccccc1)c1ccccc1 [1,3-dimethyl-1,3-diphenylurea]
4.97 ± 0.191	113.87 ± 1.1	CC(=O)OCCNc1ccc([N+](=O)[O-])cc1 [2-[(4-nitrophenyl)amino]ethanol 1-acetate]
5.43 ± 0.191	95.06 ± 1.1	CCNc1ccc([N+](=O)[O-])cc1 [N-ethyl-4-nitroaniline]
4.71 ± 0.167	53.50 ± 1.1	c1ccc(Nc2ccccc2)cc1 [diphenylamine]
